The text below walks through data of BindingDB's records for doi:10.1016/j.bmcl.2011.11.065 (Nerviano Medical Sciences, 2011).

As a reminder, the IC50 is the point on the concentration scale where inhibition reaches its midpoint. The low end stands for greater potency, the high end for weaker potency.

The target in this assay is 3-phosphoinositide-dependent protein kinase 1 (PDPK1) (Homo sapiens) (UniProt O15530). Nature of the assay: Inhibition of PDK1.

A value given as a limit tells only on which side of the number the result lay.

In the case of `CN1CCN(c2ccc(OC(F)(F)F)c(Nc3nccc(-c4cc5c(n4C)CCNC5=O)n3)c2)CC1`, the 50% inhibitory concentration (IC50) was above 10 µM.

As to `CN1CCN(c2ccc(OC(F)(F)F)c(Nc3nccc(-c4cc(C(N)=O)cn4C)n3)c2)CC1`, the IC50 was above 10 µM.
